Reference: BigSolDB 2.1

O=[N+]([O-])O.c1ccc2c(CC3=NCCN3)cccc2c1
solubility (mole fraction)
Conditions	278.15 K	283.15 K	288.15 K	293.15 K	298.15 K	303.15 K	308.15 K	313.15 K	318.15 K	323.15 K
in 2-methoxyethanol	0.0347	0.04	0.046	0.0515	0.0601	0.0662	0.0769	0.0883	0.101	0.115
in ethylene glycol	0.0168	0.0212	0.0257	0.03	0.0359	0.0428	0.0506	0.061	0.0704	0.0823
in isopropanol	0.000577	0.000763	0.00101	0.00132	0.00161	0.00206	0.00258	0.00327	0.00389	0.00489
in methanol	0.0104	0.013	0.0155	0.0193	0.0234	0.029	0.0368	0.0473	0.057	0.0705
